Test results from patent publication US20240116985A1, “STAPLED PEPTIDES AND METHODS THEREOF” (priority 2020, published 2024).

Legend:
[1] = molecular target: T1, full-length beta-Catenin (Uniprot ID P35222) (Homo sapiens, UniProt P35222); test: Fluorescence polarization IC50 (beta-catenin / 5FAM-TCF4 10-53 competition); type: binding; conditions: fluorescence polarization; read-out: beta-Catenin FP IC50
T1 construct: 10 nM full-length beta-Catenin (Uniprot ID P35222)
T1 sequence (P35222 1-781): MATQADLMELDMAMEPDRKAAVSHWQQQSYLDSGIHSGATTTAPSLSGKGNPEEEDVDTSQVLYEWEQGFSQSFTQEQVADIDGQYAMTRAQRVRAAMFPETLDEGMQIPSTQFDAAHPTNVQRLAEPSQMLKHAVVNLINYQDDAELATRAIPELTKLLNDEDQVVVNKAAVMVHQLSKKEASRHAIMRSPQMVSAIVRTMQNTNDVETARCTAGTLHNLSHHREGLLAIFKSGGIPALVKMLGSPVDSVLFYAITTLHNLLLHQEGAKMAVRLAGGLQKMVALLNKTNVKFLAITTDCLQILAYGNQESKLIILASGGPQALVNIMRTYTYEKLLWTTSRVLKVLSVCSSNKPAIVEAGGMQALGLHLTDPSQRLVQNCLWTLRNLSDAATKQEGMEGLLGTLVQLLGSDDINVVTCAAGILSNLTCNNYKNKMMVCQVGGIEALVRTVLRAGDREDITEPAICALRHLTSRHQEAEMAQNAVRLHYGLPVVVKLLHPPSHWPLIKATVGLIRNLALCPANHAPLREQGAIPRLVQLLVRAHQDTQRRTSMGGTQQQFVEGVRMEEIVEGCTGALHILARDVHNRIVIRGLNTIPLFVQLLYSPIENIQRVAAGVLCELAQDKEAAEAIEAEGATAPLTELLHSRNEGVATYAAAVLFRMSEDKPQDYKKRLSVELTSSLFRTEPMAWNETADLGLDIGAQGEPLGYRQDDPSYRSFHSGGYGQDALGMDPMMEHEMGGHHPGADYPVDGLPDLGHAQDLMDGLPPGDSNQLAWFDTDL

[2] = molecular target: T2, beta-catenin/TCF4 engagement (Homo sapiens, UniProt P35222); test: Nano-BRET target engagement assay (B-cat-Halo & TCF4-Luc in HEK293 cells); type: cell-based; conditions: read-out: NanoBRET Abs IC50
T2 construct: expressed in transfected cells; host or cells: HEK293
T2 sequence (P35222 1-781): T1 sequence (P35222 1-781)

| IC50 [1] [nM] | IC50 [2] [nM] | Compound |
| --- | --- | --- |
| 273 | > 20000 | CC(=O)N1CCC[C@]12CC=CCCCC1(CCCC=CCCCOC(=O)N3CC[C@@](C(=O)N[C@@H](Cc4ccccc4)C(=O)N[C@@H](Cc4csc5ccccc45)C(=O)N[C@@H](CCO)C(N)=O)(C3)NC(=O)[C@H](CCCCNC(C)C)NC(=O)[C@H](Cc3ccccc3)NC(=O)[C@H](C)NC(=O)[C@H](CCCCNC(C)C)NC(=O)[C@H](CCC(N)=O)NC(=O)[C@H](CC(=O)O)NC1=O)NC(=O)[C@H](CC1CCCCC1)NC(=O)[C@H](CC(N)=O)NC2=O (stereo partly drawn) [I-2102, Ac-PL3-Asn-Cha-B5-Asp-Gln-iPrLys-Ala-Phe-iPrLys-PyrS2-Phe-BztA-Hse-NH2] |
| 136 | > 20000 | CC(=O)N1CCC[C@]12CC=CCCCC1(CCCC=CCCCOC(=O)N3CC[C@@](C(=O)N[C@@H](Cc4ccccc4)C(=O)N[C@@H](Cc4csc5ccccc45)C(=O)N[C@@H](Cc4c[nH]cn4)C(N)=O)(C3)NC(=O)[C@H](CC(N)=O)NC(=O)[C@H](Cc3ccccc3)NC(=O)[C@H](C)NC(=O)[C@H](CCCCNC(C)C)NC(=O)[C@H](CCC(N)=O)NC(=O)[C@H](CC(=O)O)NC1=O)NC(=O)[C@H](CC1CCCCC1)NC(=O)[C@H](CC(N)=O)NC2=O (stereo partly drawn) [I-2109, Ac-PL3-Asn-Cha-B5-Asp-Gln-iPrLys-Ala-Phe-Asn-PyrS2-Phe-BztA-His-NH2] |
| 88 | > 20000 | CC(=O)N1CCC[C@]12CC=CCCCC1(CCCC=CCCCOC(=O)N3CC[C@@](C(=O)N[C@@H](Cc4ccccc4)C(=O)N[C@@H](Cc4csc5ccccc45)C(=O)N[C@@H](CCCCN)C(N)=O)(C3)NC(=O)[C@H](CC(N)=O)NC(=O)[C@H](Cc3ccccc3)NC(=O)[C@H](C)NC(=O)[C@H](CCCCNC(C)C)NC(=O)[C@H](CCC(N)=O)NC(=O)[C@H](CC(=O)O)NC1=O)NC(=O)[C@H](CC1CCCCC1)NC(=O)[C@H](CC(N)=O)NC2=O (stereo partly drawn) [I-2110, Ac-PL3-Asn-Cha-B5-Asp-Gln-iPrLys-Ala-Phe-Asn-PyrS2-Phe-BztA-Lys-NH2] |
| 180 | > 20000 | CC(=O)N1CCC[C@]12CC=CCCCC1(CCCC=CCCCOC(=O)N3CC[C@@](C(=O)N[C@@H](Cc4ccccc4)C(=O)N[C@@H](Cc4csc5ccccc45)C(=O)N[C@@H](CC(N)=O)C(N)=O)(C3)NC(=O)[C@H](CC(N)=O)NC(=O)[C@H](Cc3ccccc3)NC(=O)[C@H](C)NC(=O)[C@H](CCCCNC(C)C)NC(=O)[C@H](CCC(N)=O)NC(=O)[C@H](CC(=O)O)NC1=O)NC(=O)[C@H](CC1CCCCC1)NC(=O)[C@H](CC(N)=O)NC2=O (stereo partly drawn) [I-2111, Ac-PL3-Asn-Cha-B5-Asp-Gln-iPrLys-Ala-Phe-Asn-PyrS2-Phe-BztA-Asn-NH2] |
| 32 | > 20000 | CC(=O)N1CCC[C@]12CC=CCCCC1(CCCC=CCCCOC(=O)N3CC[C@@](C(=O)N[C@@H](Cc4ccsc4)C(=O)N[C@@H](Cc4csc5ccccc45)C(=O)N[C@@H](CCC(N)=O)C(N)=O)(C3)NC(=O)[C@H](CC(N)=O)NC(=O)[C@H](Cc3cccc(C(=O)O)c3)NC(=O)[C@H](C)NC(=O)[C@H](C)NC(=O)[C@H](CCc3ccc(O)cc3)NC(=O)[C@H](CC(=O)O)NC1=O)NC(=O)[C@H](CC(C)(C)C)NC(=O)[C@H](CC(=O)O)NC2=O (stereo partly drawn) [I-2114, Ac-PL3-Asp-Npg-B5-Asp-hTyr-Ala-Ala-3COOHF-Asn-PyrS2-3Thi-BztA-Gln-NH2] |
| 29 | > 20000 | CC(=O)N1CCC[C@]12CC=CCCCC1(CCCC=CCCCOC(=O)N3CC[C@@](C(=O)N[C@@H](Cc4ccsc4)C(=O)N[C@@H](Cc4csc5ccccc45)C(=O)N[C@@H](CCC(N)=O)C(N)=O)(C3)NC(=O)[C@H](CC(N)=O)NC(=O)[C@H](Cc3cccc(C(=O)O)c3)NC(=O)[C@H](C)NC(=O)[C@H](C)NC(=O)[C@H](CCc3ccc(O)cc3)NC(=O)[C@H](CC(=O)O)NC1=O)NC(=O)[C@H](CC(C)(C)C)NC(=O)[C@H](CC(=O)O)NC2=O (stereo partly drawn) [I-2115, Ac-PL3-Asp-Npg-B5-Asp-hTyr-Ala-Ala-3COOHF-Asn-PyrS2-3Thi-BztA-Gln-NH2] |
| 19 | 33400 | CC(=O)N1CCC[C@]12CC=CCCCC1(CCCC=CCCCOC(=O)N3CC[C@@](C(=O)N[C@@H](Cc4ccsc4)C(=O)N[C@@H](Cc4csc5ccccc45)C(=O)N[C@@H](CCC(N)=O)C(N)=O)(C3)NC(=O)[C@H](CCO)NC(=O)[C@H](Cc3cccc(C(=O)O)c3)NC(=O)[C@H](C)NC(=O)[C@H](C)NC(=O)[C@H](CCc3ccc(O)cc3)NC(=O)[C@H](CC(=O)O)NC1=O)NC(=O)[C@H](CC(C)(C)C)NC(=O)[C@H](CC(=O)O)NC2=O (stereo partly drawn) [I-2116, Ac-PL3-Asp-Npg-B5-Asp-hTyr-Ala-Ala-3COOHF-Hse-PyrS2-3Thi-BztA-Gln-NH2] |
| 19 | > 20000 | CC(=O)N1CCC[C@]12CC=CCCCC1(CCCC=CCCCOC(=O)N3CC[C@@](C(=O)N[C@@H](Cc4ccsc4)C(=O)N[C@@H](Cc4csc5ccccc45)C(=O)N[C@@H](CCC(N)=O)C(N)=O)(C3)NC(=O)[C@H](CCO)NC(=O)[C@H](Cc3cccc(C(=O)O)c3)NC(=O)[C@H](C)NC(=O)[C@H](C)NC(=O)[C@H](CCc3ccc(O)cc3)NC(=O)[C@H](CC(=O)O)NC1=O)NC(=O)[C@H](CC(C)(C)C)NC(=O)[C@H](CC(=O)O)NC2=O (stereo partly drawn) [I-2117, Ac-PL3-Asp-Npg-B5-Asp-hTyr-Ala-Ala-3COOHF-Hse-PyrS2-3Thi-BztA-Gln-NH2] |
| 21 | > 20000 | CC(=O)N1CCC[C@]12CC=CCCCC1(CCCC=CCCCOC(=O)N3CC[C@@](C(=O)N[C@@H](Cc4ccsc4)C(=O)N[C@@H](Cc4csc5ccccc45)C(=O)N[C@@H](CCC(N)=O)C(N)=O)(C3)NC(=O)[C@H](CC(N)=O)NC(=O)[C@H](Cc3cccc(C(=O)O)c3)NC(=O)[C@H](C)NC(=O)[C@H](C)NC(=O)[C@H](Cc3c[nH]cn3)NC(=O)[C@H](CC(=O)O)NC1=O)NC(=O)[C@H](CC(C)(C)C)NC(=O)[C@H](CC(=O)O)NC2=O (stereo partly drawn) [I-2118, Ac-PL3-Asp-Npg-B5-Asp-His-Ala-Ala-3COOHF-Asn-PyrS2-3Thi-BztA-Gln-NH2] |
| 29 | > 20000 | CC(=O)N1CCC[C@]12CC=CCCCC1(CCCC=CCCCOC(=O)N3CC[C@@](C(=O)N[C@@H](Cc4ccsc4)C(=O)N[C@@H](Cc4csc5ccccc45)C(=O)N[C@@H](CCC(N)=O)C(N)=O)(C3)NC(=O)[C@H](CC(N)=O)NC(=O)[C@H](Cc3cccc(C(=O)O)c3)NC(=O)[C@H](C)NC(=O)[C@H](C)NC(=O)[C@H](Cc3c[nH]cn3)NC(=O)[C@H](CC(=O)O)NC1=O)NC(=O)[C@H](CC(C)(C)C)NC(=O)[C@H](CC(=O)O)NC2=O (stereo partly drawn) [I-2119, Ac-PL3-Asp-Npg-B5-Asp-His-Ala-Ala-3COOHF-Asn-PyrS2-3Thi-BztA-Gln-NH2] |
| 11 | 37200 | CC(=O)N1CCC[C@]12CC=CCCCC1(CCCC=CCCCOC(=O)N3CC[C@@](C(=O)N[C@@H](Cc4ccsc4)C(=O)N[C@@H](Cc4csc5ccccc45)C(=O)N[C@@H](CCC(N)=O)C(N)=O)(C3)NC(=O)[C@H](CCO)NC(=O)[C@H](Cc3cccc(C(=O)O)c3)NC(=O)[C@H](C)NC(=O)[C@H](C)NC(=O)[C@H](Cc3c[nH]cn3)NC(=O)[C@H](CC(=O)O)NC1=O)NC(=O)[C@H](CC(C)(C)C)NC(=O)[C@H](CC(=O)O)NC2=O (stereo partly drawn) [I-2120, Ac-PL3-Asp-Npg-B5-Asp-His-Ala-Ala-3COOHF-Hse-PyrS2-3Thi-BztA-Gln-NH2] |
